The text below walks through data of ChEMBL document CHEMBL1132754, “Photosensitizers related to purpurin-18-N-alkylimides: a comparative in vivo tumoricidal ability of ester versus amide functionalities” (Bioorg Med Chem Lett, 2000).

One may read the logP as the decadic logarithm of the partition coefficient of the neutral form, usually between octanol and water. A high value points to higher lipophilicity.

The subject of data set [1] is Mus musculus. In words: The in vivo tumor uptake was determined by reflectance spectroscopy in mouse. Format: functional.
Data set [2] can be described thus: Partition coefficient (logP). Format: physicochemical. The note with it: octanol/water.
The test system of data set [3] is Mus musculus. In words: Tumor versus muscle uptake ratio in mice (implanted with RIFtumor)by in vivo reflectance spectroscopy at 5 min, 24 hr and 48 hr post injection (5.0 umol/kg). Format: functional, Muscle tissue.
The test system of data set [4] is Mus musculus. In words: Percent tumor response in mice (implanted with RIF tumor) on day 7 at 24 hours post injection (1.0 umol/kg). Format: functional.
The subject of data set [5] is Mus musculus. In words: Photodynamic therapy response in mice (implanted with RIF tumor) on day 20 after administering the compound (0.4 umol/kg). Format: functional.
Data set [6] deals with Mus musculus. In words: Photodynamic therapy response in mice (implanted with RIF tumor) on day 15 after administering the compound (0.4 umol/kg). Format: functional.
Data set [7] has as its system Mus musculus. In words: Photodynamic therapy response in mice (implanted with RIF tumor) on day 10 after administering the compound (0.4 umol/kg); Complete response. Format: functional, organism-based.
Data set [8] concerns Mus musculus. In words: Photodynamic therapy response in mice (implanted with RIF tumor)after administering the compound (0.4 umol/kg); Decreased. Format: functional, organism-based.
For data set [9], the system named is Mus musculus. As to the kind of experiment: Percent tumor response in mice (implanted with RIF tumor) on day 30 after administering the compound (1.0 umol/kg). Format: functional.
In data set [10] the test system is Mus musculus. As to the kind of experiment: Photodynamic therapy response in mice (implanted with RIF tumor) on day 25 after administering the compound (0.4 umol/kg);Tumor regrowth. Format: functional, organism-based.

With `CCCCCCNC(=O)CC[C@@H]1c2nc(cc3[nH]c(cc4[nH]c(cc5nc6c2C(=O)N(CCCCCC)C(=O)C6=C5C)c(CC)c4C)c(C(C)OCCC)c3C)[C@H]1C` (stereo partly specified), in the data set on Mus musculus [1], the Tumor uptake came out at 7 µM/kg. The compound also had a lipophilicity (logP) in [2] of 10.3. Besides, the Ratio with Mus musculus [3] was 2.69. In addition, the Tumor response with Mus musculus [4] is reported as 67%.
Compound `CCCCCCN1C(=O)c2c3nc(cc4nc(cc5[nH]c(cc6[nH]c2c(c6C)C1=O)c(CC)c5C)C(C(C)OCCCC)=C4C)[C@@H](C)[C@@H]3CCC(=O)OC` (stereo partly specified) returned a Tumor uptake in the data set on Mus musculus [1] of 12.9 µM/kg. In addition, the log partition coefficient (logP) in [2] is recorded as 9.3. The Ratio with Mus musculus [3] is on record as 2.22. In the data set with Mus musculus [4], this compound showed a Tumor response of 100%.
Consider `CCCCCCOC(C)C1=C(C)c2cc3nc(c4c5[nH]c(cc6[nH]c(cc1n2)c(C)c6CC)c(C)c5C(=O)N(CCCCCC)C4=O)[C@@H](CCC(=O)OC)[C@@H]3C` (stereo partly specified), for which the Response in the data set on Mus musculus [5] is on record as 60%; in the data set with Mus musculus [6], 80%; in the data set with Mus musculus [7] it was “Complete response”; in the data set on Mus musculus [8], “Complete response”; in the data set with Mus musculus [9] it was 100%; in the data set on Mus musculus [10] it was “Complete response”. This compound also yielded a Tumor uptake in the data set with Mus musculus [1] of 7.27 µM/kg. This compound displayed a logP in data set [2] of 10.3. In addition, in the data set on Mus musculus [3], the Ratio worked out at 8. Besides, the Tumor response with Mus musculus [4] came out at 100%.
`CCCCCCCOC(C)C1=C(C)c2cc3nc(c4c5[nH]c(cc6[nH]c(cc1n2)c(C)c6CC)c(C)c5C(=O)N(CCCCCC)C4=O)[C@@H](CCC(=O)NCCCCCC)[C@@H]3C` (stereo partly specified): the Tumor uptake in the data set on Mus musculus [1] was 6.58 µM/kg. Besides, the Ratio in the data set with Mus musculus [3] turned out to be 3.59. This compound displayed a Tumor response in the data set on Mus musculus [4] of 50%.
As to `CCCCCCNC(=O)CC[C@@H]1c2nc(cc3[nH]c(cc4[nH]c(cc5nc6c2C(=O)N(CCCCCC)C(=O)C6=C5C)c(CC)c4C)c(C(C)OC)c3C)[C@H]1C` (stereo partly specified), in the data set on Mus musculus [1], the Tumor uptake is 6.4 µM/kg. The same compound came in with a logP in [2] of 9.3. Also, the Ratio in the data set on Mus musculus [3] came out at 4.35. In the data set on Mus musculus [4], this compound registered a Tumor response of 0%.
For the compound `CCCCCCCCCCOC(C)C1=C(C)c2cc3nc(c4c5[nH]c(cc6[nH]c(cc1n2)c(C)c6CC)c(C)c5C(=O)N(CCCCCC)C4=O)[C@@H](CCC(=O)OC)[C@@H]3C` (stereo partly specified), the Tumor uptake in the data set on Mus musculus [1] was found to be 4.2 µM/kg. Besides, the Ratio in the data set with Mus musculus [3] came out at 3.23. In addition, in the data set with Mus musculus [4], the Tumor response turned out to be 100%.
In the data set with Mus musculus [1], `CCCCCCNC(=O)CC[C@@H]1c2nc(cc3[nH]c(cc4[nH]c(cc5nc6c2C(=O)N(CCCCCC)C(=O)C6=C5C)c(CC)c4C)c(C(C)OCCCCC)c3C)[C@H]1C` (stereo partly specified) returned a Tumor uptake of 7.33 µM/kg. This compound showed a lipophilicity (logP) in data set [2] of 11.3. In the data set on Mus musculus [3], the Ratio is listed as 3.32. For the same compound, the Tumor response in the data set with Mus musculus [4] was determined as 20%.
Consider `CCCCCCCCOC(C)C1=C(C)c2cc3nc(c4c5[nH]c(cc6[nH]c(cc1n2)c(C)c6CC)c(C)c5C(=O)N(CCCCCC)C4=O)[C@@H](CCC(=O)OC)[C@@H]3C` (stereo partly specified), for which the Tumor uptake in the data set with Mus musculus [1] was 15.7 µM/kg. Besides, in [2], the logP worked out at 11.3. Further, the Ratio in the data set with Mus musculus [3] came out at 2.9. This compound came in with a Tumor response in the data set on Mus musculus [4] of 10%.
